Measured values reported in US20230405134A1, “NOVEL PROTAC CHIMERIC COMPOUND, AND PHARMACEUTICAL COMPOSITION COMPRISING SAME FOR PREVENTING, AMELIORATING, OR TREATING DISEASES THROUGH TARGET PROTEIN DEGRADATION” (POSTECH RESEARCH AND BUSINESS DEVELOPMENT FOUNDATION, priority 2020, published 2023).
Where a SMILES comes first, the peptide text is derived from it. Bridges are numbered along the chain shown (N, C = ends). [ ]: non-standard residue; d: D form. Cha = N[C@@H](CC1CCCCC1)C(=O)O; S5 = C=CCCC[C@](C)(N)C(=O)O

Columns and labels:
[1] = test system: CSF-1; assay: CSF-1 mRNA level by RT-qPCR in MDA-MB-231 cells; format: cell-based, human; conditions: 12 hours
From the text: The pharmacological effects on SRC-1 dependent signal transmission were explored using the previously discovered SRC-1 degrading substance. The SRC-1 is overexpressed in various cancers and plays a pivotal role in increasing cell migration and invasion by regulating the expression of related genes. Therefore, when treated with ND1-YL2, an SRC-1 degrading substance, the expression of genes stimulated by SRC-1, such as colony stimulating factor-1 (CSF-1), a gene encoding the cytokine CSF-1 that induces cell differentiation and migration, will be suppressed. To confirm this, MDA-MB-231 cells were treated with DMSO and various concentrations of ND1-YL2, YL2 or N-degron tetrapeptide for 12 hours, and the mRNA level of CSF-1 was normalized to 18S level. Confirmation was made using quantitative real-time polymerase chain reaction (RT-qPCR). MDA-MB-231 cells were seeded at 2×10^5 cells per well. After 24 hours, compounds (YL2, RLAA or ND1-YL2) were treated in Opti-MEM medium for 12 hours. Subsequently, general mRNA isolation was performed using TRI reagent (Takara), and total mRNA was isolated from the cells. The absorbance of total mRNA was measured with a Tecan F200 Nanophotometer, and reverse transcription was performed using AccuPower RocketScript Cycle RT PreMix (Bioneer). Quantitative real-time PCR for CSF-1, E-Cadherin and 18S was performed using a StepOnePlus Real-Time PCR System and SYBR Green mix (Applied Biosystems) according to the manufacturer's manual.

[2] = test system: MDA-MB-231-RFP cells; assay: Pulmonary metastasis model in mice; format: in vivo, BALB/c-nude mice; conditions: cells treated with 100 μM for 12 hours, intravenously injected, flow cytometry of lungs after two weeks
Procedure: It was confirmed whether ND1-YL2 could inhibit cancer metastasis through mice model. MDA-MB-231-RFP cells expressing red fluorescent protein (RFP) were cultured in DMEM (Welgene) containing 10% FBS (Omega Scientific Inc.) under the conditions of 37° C. and 5% CO2. 5-week-old BALB/c-nude mice (OriententBio Inc.) were maintained in a sterile environment and had free access to food and water. All animal procedures were approved by the Organ Animal Care and Use Committee of POSTECH. For the pulmonary metastasis model, MDA-MB-231-RFP cells treated with DMSO or 100 μM of ND1-YL2 for 12 hours were intravenously injected at 10^6 cells per mouse, followed by […]. The lungs were harvested and prepared in a single cell suspension and filtered through a 100 μm cell strainer (Corning). It was further cultured for 2 minutes in ACK lysis buffer (Gibco). The samples were analyzed by LSR Fortessa (BD Biosciences). […] To visualize lung metastasis, lung sections were prepared and dyed with Haemotoxylin and Eosin (H&E) stain.

[3] = test system: MDA-MB-231 cells; assay: Matrigel invasion assay; format: cell-based, human; conditions: 24 hours; ND1-YL2 various concentrations, YL2 and RLAA 20 μM
Procedure: The inhibition of cell migration may be due to the inhibitory effect of ND1-YL2 on cell growth. In order to exclude this possibility, the invasive ability of cells treated with ND1-YL2 was confirmed. A Corning Matrigel insert (Corning) was placed in a 24-well plate. After hydrating the Matrigel insert with an FBS-free DMEM medium for 2 hours in a CO2 incubator, MDA-MB-231 cells were cultured in the Matrigel insert (4×10^4 cells/insert) with 125 μL of Opti-MEM medium. Another 125 μl of compound containing Opti-MEM medium was added to the insert. The lower chamber was filled with 500 μL of DMEM medium containing 10% FBS. The Matrigel chamber was cultured for 24 hours under the conditions of 37° C. and 5% CO2. The cell culture media of the upper and lower chambers were removed and washed three times with cold DPBS. Non-invasive cells were then removed with a cotton swab. The bottom of the chamber was fixed with 4% formaldehyde for 10 minutes at room temperature, and stained with Hoechst 33342 (5 μg/mL) for 5 minutes in a CO2 incubator. After washed with DPBS, images of infiltrated cells were obtained by a fluorescence microscope. The percentage of the invasive cells was calculated using the product manual. MDA-MB-231 cells were treated with various concentrations of ND1-YL2, N-degron (20 μM) or YL2 (20 μM). After 24 hours, images of the invaded cells were obtained by a fluorescence microscope, and the number of invaded cells was quantified through the images. […] The inhibitory activity of ND1-YL2 on cell migration and invasion is in good agreement with previous SRC-1 knockdown experiments.

[4] = molecular target: SRC-1 (Homo sapiens, UniProt Q15788); assay: SRC-1 expression level in MDA-MB-231 cells by Western blot; format: cell-based; design: endogenous in cells; host or cells: MDA-MB-231
Chain of SRC-1 (Q15788 whole entry): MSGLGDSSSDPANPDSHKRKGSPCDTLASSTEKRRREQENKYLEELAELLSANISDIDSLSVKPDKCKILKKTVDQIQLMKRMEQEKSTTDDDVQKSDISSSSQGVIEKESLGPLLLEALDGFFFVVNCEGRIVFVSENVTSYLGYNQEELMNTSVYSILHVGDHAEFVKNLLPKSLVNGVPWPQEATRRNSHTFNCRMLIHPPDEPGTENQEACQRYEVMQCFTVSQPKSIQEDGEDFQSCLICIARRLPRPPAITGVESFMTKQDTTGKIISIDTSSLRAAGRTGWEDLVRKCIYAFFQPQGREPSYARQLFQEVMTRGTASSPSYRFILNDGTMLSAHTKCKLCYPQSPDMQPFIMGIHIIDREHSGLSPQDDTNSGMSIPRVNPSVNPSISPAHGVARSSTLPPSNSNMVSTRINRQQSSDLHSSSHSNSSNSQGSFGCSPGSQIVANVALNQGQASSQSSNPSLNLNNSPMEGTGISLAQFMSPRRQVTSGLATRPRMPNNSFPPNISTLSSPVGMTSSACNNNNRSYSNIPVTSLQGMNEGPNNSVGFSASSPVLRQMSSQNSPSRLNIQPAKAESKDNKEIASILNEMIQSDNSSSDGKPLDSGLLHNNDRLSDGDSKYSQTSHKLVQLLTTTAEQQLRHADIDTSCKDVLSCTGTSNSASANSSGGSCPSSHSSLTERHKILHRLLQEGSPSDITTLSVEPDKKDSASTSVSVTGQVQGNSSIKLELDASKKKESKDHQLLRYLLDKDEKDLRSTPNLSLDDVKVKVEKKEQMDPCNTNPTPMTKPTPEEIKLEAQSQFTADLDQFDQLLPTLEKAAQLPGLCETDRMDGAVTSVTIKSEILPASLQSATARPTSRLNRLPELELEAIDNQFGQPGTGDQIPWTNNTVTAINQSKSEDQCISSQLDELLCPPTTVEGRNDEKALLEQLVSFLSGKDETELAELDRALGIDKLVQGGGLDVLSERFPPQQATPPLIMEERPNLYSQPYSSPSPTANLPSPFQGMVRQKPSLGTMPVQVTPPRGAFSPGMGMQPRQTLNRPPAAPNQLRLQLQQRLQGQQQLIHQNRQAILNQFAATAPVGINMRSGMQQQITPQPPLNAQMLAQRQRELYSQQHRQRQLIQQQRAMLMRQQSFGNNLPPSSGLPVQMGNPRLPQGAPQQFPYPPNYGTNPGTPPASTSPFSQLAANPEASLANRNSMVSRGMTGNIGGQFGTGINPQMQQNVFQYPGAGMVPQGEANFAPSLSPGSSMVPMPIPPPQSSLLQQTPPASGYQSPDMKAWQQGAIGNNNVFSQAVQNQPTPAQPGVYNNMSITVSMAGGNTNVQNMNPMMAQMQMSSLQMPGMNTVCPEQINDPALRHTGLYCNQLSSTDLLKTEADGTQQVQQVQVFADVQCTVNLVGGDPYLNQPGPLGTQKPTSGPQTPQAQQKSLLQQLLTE

## CC(C)C[C@H](NC(=O)[C@H](C)NC(=O)[C@H](C)NC(=O)[C@H](C)NC(=O)[C@H](C)NC(=O)[C@H](CC(C)C)NC(=O)[C@@H](N)CCCNC(=N)N)C(=O)N[C@@H](CC(C)C)C(=O)N1CCC[C@H]1C(=O)N1CCC[C@H]1C(=O)N[C@H](C(=O)N[C@@H](CCC(=O)O)C(=O)N[C@@H](CCC(N)=O)C(=O)N[C@@H](CC(=O)O)C(=O)N[C@@H](CC(C)C)C(=O)N[C@@]1(C)CCC/C=C\CCC[C@@](C)(C(=O)N[C@@H](Cc2ccc(O)cc2)C(N)=O)NC(=O)[C@H](CC2CCCCC2)NC(=O)[C@H](CC(C)C)NC(=O)[C@H](CCCCN)NC1=O)[C@@H](C)O [ND1-YL2] (H-RLAAAALLPPTEQDL[S5]KL[Cha][S5]Y-NH2; staple (Z) 16-20)
[1]
  Effect on CSF-1 expression (mRNA normalized to 18S): downregulated CSF-1 expression
[2]
  Reduction of infiltrated MDA-MB-231-RFP cells in lungs compared to vehicle samples: 40%
[3]
  Effect on cell invasion: cell invasion decreased as the treatment concentration of ND1-YL2 increased
[4]; 20 μM
  Selective degradation of SRC-1 over SRC-3: selectively degraded only SRC-1
  Time after treatment at which SRC-1 degradation was evident: 8 h
  Time for which SRC-1 degradation was maintained without detectable recovery: 24 h
[4]; 20 μM, 12 hours
  SRC-1 degradation, single agents compared: degradation of SRC-1 appeared only in ND1-YL2
[4]; 20 μM, after washing
  Time to restoration of SRC-1 expression to the original level after removal of compound: ≤ 12 h
[4]; various concentrations, Western blot
  SRC-1 degradation: strongest activity among the synthesized and treated compounds
[4]; various concentrations, Western blot, read-out: DC50 for reduction of SRC-1 expression level
  DC50: ~10 µM
[4]; with proteasome inhibitor MG-132 (5 μM), 12 hours
  SRC-1 degradation when treated together with MG-132: did not show the effect of degrading SRC-1
